In paper PMC4057637, “Efficacy of novel antibacterial compounds targeting histidine kinase YycG protein” (Applied Microbiology and Biotechnology, 2014):
Converted amounts (≈) assume the structure as drawn.

Experiments:
[1] = molecular target: T1, recombinant YycG′ (Staphylococcus epidermidis, UniProt Q5HK19); experiment: Inhibition of YycG′ autophosphorylation (Kinase-Glo Luminescent Kinase Assay); type: biochemical, S. epidermidis; details: for inhibition of enzymatic autophosphorylation of YycG′: 100 μM derivative, YycG′ 0.13 μM; for IC50: autophosphorylation of recombinant YycG′, Kinase-Glo
T1 construct: made in house; host or cells: E. coli BL21 (DE3)
Experimental: Recombinant YycG (YycG′, amino acids 370–610) was prepared by expressing the HATPase_c and HisKA domains of YycG in E. coli BL21 (DE3). In brief, the sequence coding for YycG′ was amplified from the genome of S. epidermidis ATCC 35984 by PCR and cloned into the pET28a (+) vector, which inserts a GB1 tag (B1 domain of protein G, 56 residues) to make the recombinant fusion protein highly soluble and stable. The recombinant YycG′ protein was fused to the GB1 tag at its N-terminus end, expressed in E. coli BL21 (DE3) and purified by Ni^2+ affinity chromatography on a Ni-NTA column (Qiagen, Germany). The purified YycG′ was cleaved by TEV protease and further purified by Ni-NTA and Superdex 75 gel filtration columns (GE Healthcare, USA).
The Kinase-Glo™ Luminescent Kinase Assay (Promega, Madison, WI, USA) was used to measure the inhibitory activities of the derivatives against the autophosphorylation activity of the recombinant YycG′ following the manufacturer’s recommendation. The derivatives were serially diluted from 200 to 1.6 μM with reaction buffer (40 mM Tris pH 8.0, 20 mM MgCl2, and 0.1 mg/ml BSA). Recombinant YycG′ (0.02 μg/μl) and diluted derivative were added into a 96-well plate and incubated at 25 °C for 30 min, and then 4 μM ATP was added into each well and incubated for another 30 min. Finally, 50 μl Kinase-Glo™ Reagent containing luciferase (kinase) and D-luciferin was added. The luminescent signal generated by luciferase was in proportion to the amount of ATP remaining in the reaction. Luminescence was detected by a Perkin Elmer Victor X5 luminescence plate reader, and the intensity was recorded as relative light units (RLU). The wells containing ATP and Kinase-Glo™ without YycG′ and derivatives or containing YycG′ plus ATP and Kinase-Glo™ without the derivatives were used as the controls. The percentage inhibition of protein phosphorylation (Rp) by the derivatives was calculated as follows: Rp=RLUYycG^’+derivative+ATP+Kinase-Glo^TM-RLUYycG^’+ATP+Kinase-Glo^TM/RLUATP+Kinase-Glo^TM-RLUYycG^’+ATP+Kinase-Glo^TM×100
The concentration of a derivative required to inhibit half of the autophosphorylation of recombinant YycG′ (half maximal inhibitory concentration, IC50) was calculated with Origin 8.0 software (Origin Lab, Northampton, USA). Three independent assays were carried out, and each was performed in quadruplicate.

[2] = system: S. aureus ATCC 25923; experiment: MIC, broth dilution; type: cell-based; details: Staphylococcus aureus, ATCC25923
Experimental: (§1) MICs of the derivatives for S. epidermidis and S. aureus were determined by the broth dilution method according to the National Committee for Clinical Laboratory (NCCLS) recommendations (Turnidge and Bordash [2007]). Twofold dilutions of the derivatives in tubes containing 4 ml of Mueller-Hinton broth (MH, Sigma, Germany) were made to concentrations from 200 to 0.39 μM. Overnight cultures of the bacteria were adjusted to the 0.5 McFarland standards and inoculated 1:200 into the MH broth and then incubated at 37 °C for 16–20 h. The lowest concentration inhibiting visible growth of the bacteria was recorded as minimal inhibitory concentration (MIC).

[3] = system: S. aureus ATCC 49230; experiment: MIC, broth dilution; type: cell-based; details: Staphylococcus aureus, ATCC49230
Experimental: as §1

[4] = system: S. epidermidis ATCC 12228; experiment: MIC, broth dilution; type: cell-based; details: Staphylococcus epidermidis, ATCC12228
Experimental: as §1

[5] = system: Clinical MRSE strains; experiment: MIC, broth dilution; type: cell-based, S. epidermidis; details: Staphylococcus epidermidis; Clinical MRSE strains (n = 5)
Experimental: (§2) Bacterial strains S. epidermidis ATCC 12228 (nonbiofilm forming), S. epidermidis ATCC 35984 (biofilm forming), S. aureus ATCC 49230, and S. aureus ATCC 25923 were from the American Type Culture Collection (ATCC, Manassas, USA) and were cultured in tryptic soy broth medium (TSB; Oxoid Ltd., Basingstoke, England). Ten clinical methicillin-resistant staphylococcal isolates, five MRSA isolates and five MRSE isolates, were collected from Huadong Teaching Hospital in Shanghai. Escherichia coli ATCC 25922 was grown in Luria-Bertani (LB) broth. The six compounds used in this study (H2-38, H2-39, H2-57, H2-60, H2-74, and H2-81) were screened from 56 derivatives of compound 2 in which the functional groups were modified, but the thiazolidine core structure was unchanged. The compounds were synthesized by Nanjing University of Technology. To generate the derivative compounds, halogen atoms were introduced into 4-thiazolidinone compounds that contained carboxylic acid moieties of phenoxy-acetic acid, (5-vinyl-furan-2-yl)-benzoic acid or (5-vinyl-thiophene-2-yl)-benzoic acid. The derivatives were dissolved in dimethyl sulfoxide (DMSO; Amresco, USA) to 200 mM for use as stock solutions.
as §1

[6] = system: E. coli ATCC 25922; experiment: MIC, broth dilution; type: cell-based; details: Escherichia coli, ATCC25922, 200 μM highest concentration used
Experimental: as §2, §1

[7] = system: mature (24-h-old) biofilms of S. epidermidis ATCC 35984; experiment: Bacterial viability in mature biofilms by CLSM with Live/Dead staining; type: cell-based; details: 4 × MIC, 16 h, SYTO9/PI
Experimental: A diluted overnight culture of the bacteria was inoculated into cell culture glass bottom dishes (WPI, USA) and incubated at 37 °C for 24 h. […] The biofilms were washed with PBS and stained with SYTO9 and propidium iodide (PI), both of which were used at a concentration of 1 μM. SYTO9-stained live cells and PI-stained cells dead in biofilms were visualized by a Leica TCS SP5 confocal laser scanning microscope with a ×63 1.4-NA oil immersion objective. Three-dimensional biofilm images were created by IMARIS 7.0.0 software (Bitplane).

[8] = Hemolytic activity; type: cell-based; details: healthy human erythrocytes, 5 % (v/v) suspension; for hemolysis at 1 h: at MIC
Experimental: The hemolytic activities of the derivatives on healthy human erythrocytes were also determined. Healthy human erythrocytes resuspended in normal saline (NS) at 5 % (v/v) were co-incubated with the derivatives at final concentrations of MIC, 4 × MIC, or 200 μM for 1 h at 37 °C in 96-well microtiter plates. The suspensions were centrifuged at 350 g for 10 min and the supernatant (100 μl) was transferred to new wells and measured at 570 nm on a spectrophotometer (Benchmark Microplate Reader; Bio-Rad, Hercules, CA, USA). The percentage of hemolysis was calculated by normalizing against the absorbance of erythrocytes treated with 1 % Triton X-100, which caused complete hemolysis; 0.1 % DMSO-treated cells were used as a control (Miyoshi et al. [1997]). The experiment was performed in quadruplicate wells and repeated independently three times.

T1 sequence (Q5HK19 370-610): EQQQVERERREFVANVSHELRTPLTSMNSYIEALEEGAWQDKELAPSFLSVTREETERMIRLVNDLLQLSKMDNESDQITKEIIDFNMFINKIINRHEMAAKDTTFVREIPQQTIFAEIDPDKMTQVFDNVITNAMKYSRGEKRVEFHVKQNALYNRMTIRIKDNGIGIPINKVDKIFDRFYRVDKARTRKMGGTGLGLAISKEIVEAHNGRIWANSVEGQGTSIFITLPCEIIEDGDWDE

Structure (SMILES) | inhibition of enzymatic autophosphorylation of YycG′ [1] [%] | IC50 [1] [µM] | MIC [2] [µM] | MIC [3] [µM] | MIC [4] [µM] | MIC [5] [µM] | MIC [6] [µM] | proportion of viable cells in mature biofilms [7] [%] | hemolysis at 1 h, 200 µM [8] [%] | hemolysis at 1 h [8] [%]
O=C(O)COc1ccc(C=C2SC(=Nc3ccc(Cl)cc3)N(c3ccc(Cl)cc3)C2=O)cc1 [H2-74, 2-{4-{[3-(4-chlorophenyl)-2-[(4-chlorophenyl)imino]-4-oxothiazolidin-5-ylidene}methyl}phenoxy}acetic acid] | 53.9 | 71.2 ± 4.9 | 3.1 (≈ 1.55 µg/mL) | 1.5 (≈ 0.749 µg/mL) | 1.5 (≈ 0.749 µg/mL) | 3.1 to 6.3 (≈ 1.55 to 3.15 µg/mL) | > 200 | 32.5 | 0.42 ± 0.03 | 0.14 ± 0.03
O=C(O)c1ccc(-c2ccc(C=C3SC(=Nc4ccc(Cl)cc4)N(c4ccc(Cl)cc4)C3=O)o2)cc1 [H2-39, 4-{5-{{3-(4-chlorophenyl)-2-[(4-chlorophenyl)imino]-4-oxothiazolidin-5-ylidene}methyl}furan-2-yl}benzoic acid] | 56.3 | 59.8 ± 1.4 | 1.5 (≈ 0.803 µg/mL) | 1.5 (≈ 0.803 µg/mL) | 1.5 (≈ 0.803 µg/mL) | 1.5 to 3.1 (≈ 0.803 to 1.66 µg/mL) | > 200 | 55.6 | 0.41 ± 0.05 | 0.12 ± 0.03
O=C(O)c1ccc(-c2ccc(/C=C3\S/C(=N\c4ccccc4)N(c4ccc(F)cc4)C3=O)s2)cc1 [H2-81, 4-{5-{{3-(4-fluorophenyl)-2-[(4-phenyl)imino]-4-oxothiazolidin-5-ylidene}methyl}thiophene-2-yl}benzoic acid] | 79.2 | 24.2 ± 1.2 | 1.5 (≈ 0.751 µg/mL) | 1.5 (≈ 0.751 µg/mL) | 1.5 (≈ 0.751 µg/mL) | 1.5 (≈ 0.751 µg/mL) | > 200 | 12.3 | 0.1 ± 0.03 | 0.06 ± 0.09
O=C(O)c1ccc(-c2ccc(/C=C3\S/C(=N\c4ccccc4)N(c4ccc(Cl)cc4)C3=O)o2)cc1 [H2-57, 4-{5-{{3-(4-chlorophenyl)-2-[(4-phenyl)imino]-4-oxothiazolidin-5-ylidene}methyl}furan-2-yl}benzoic acid] | 59.7 | 47.1 ± 1.5 | 3.1 (≈ 1.55 µg/mL) | 1.5 (≈ 0.751 µg/mL) | 3.1 (≈ 1.55 µg/mL) | 1.5 to 3.1 (≈ 0.751 to 1.55 µg/mL) | > 200 | 17.1 | 0.16 ± 0.04 | 0.14 ± 0.03
O=C(O)c1cccc(-c2ccc(C=C3SC(=Nc4ccc(Cl)cc4)N(c4ccc(Cl)cc4)C3=O)o2)c1 [H2-38, 3-{5-{{3-(4-chlorophenyl)-2-[(4-chlorophenyl)imino]-4-oxothiazolidin-5-ylidene}methyl}furan-2-yl}benzoic acid] | 61.8 | 41.4 ± 3.4 | 1.5 (≈ 0.803 µg/mL) | 1.5 (≈ 0.803 µg/mL) | 1.5 (≈ 0.803 µg/mL) | 1.5 to 3.1 (≈ 0.803 to 1.66 µg/mL) | > 200 | 42.3 | 0.28 ± 0.03 | 0.14 ± 0.03
O=C(O)c1ccc(-c2ccc(C=C3SC(=Nc4ccc(F)cc4)N(c4ccc(F)cc4)C3=O)s2)cc1 [H2-60, 4-{5-{{3-(4-fluorophenyl)-2-[(4-fluorophenyl)imino]-4-oxothiazolidin-5-ylidene}methyl}thiophene-2-yl}benzoic acid] | 55.4 | 63.7 ± 2.3 | 1.5 (≈ 0.778 µg/mL) | 1.5 (≈ 0.778 µg/mL) | 1.5 (≈ 0.778 µg/mL) | 1.5 to 3.1 (≈ 0.778 to 1.61 µg/mL) | > 200 | 14 | 0.84 ± 0.03 | 0.52 ± 0.06
CCc1ccccc1/N=C1\S/C(=C\c2ccc(OCC(=O)O)c(OC)c2)C(=O)N1c1ccccc1CC [Compound 2, {2-{4-{3-(2-ethylphenyl)-2-[(2-ethylphenyl)imino]-4-oxothiazolidin-5-ylidene}methyl}-2-methoxyphenoxy}acetic acid] | – | 47.9 ± 5.3 | 50 (≈ 25.8 µg/mL) | 50 (≈ 25.8 µg/mL) | 25 (≈ 12.9 µg/mL) | 25 to 50 (≈ 12.9 to 25.8 µg/mL) | > 200 | – | 5.24 ± 0.21 | 2.31 ± 0.35
